Results from patent publication EP4748839A1 (CSPC Zhongqi Pharmaceutical Technology (Shijiazhuang) Co., …, priority 2023, dated 2025).
Each block holds one compound with its values, some of them ahead of it.

Molecular target: T1, GLP-1R (Homo sapiens, UniProt P43220)
T1 construct: expressed in transfected cells
Experiment: GLP-1R agonistic effect in GLP1R-cAmp-Luc cells (luciferase reporter; titled 'Enzymatic assay')
Assay type: cell-based
Settings: for EC50: 4 hours incubation, firefly luciferin signal; for EC50 of Positive reference / EC50 of Compound of the Present Application: Positive reference is PF-06882961
Experimental: The GLP-1R agonistic effects of the test compounds were determined using GLP1R-cAmp-Luc cells. 1) The test compound was dissolved in DMSO and mixed well until the test compound was completely dissolved. The test compounds were dissolved in DMSO to prepare 10 mM stock solutions. All compounds were diluted with DMEM medium (high sugar, Puromycin^+, Hygromycin B^+) to an initial concentration of 1250 nM, and then subjected to 5-fold serial dilution to a total of 7 concentration gradients. The GLP1R-cAmp-Luc cells were seeded in white-wall 96-well cell culture plates at a density of 1×10^5/mL, with 90 µL cell suspension per well; the test compound at each of the 7 concentration gradients was added at 10 µL per well, with the actual initial working concentration of 125 nM; and the cells were placed in a 37 °C, 5% CO2 cell incubator for 4 hours; 2) 100 µL of luciferin potassium salt solution diluted to 300 µg/mL in PBS was added to each well at a working concentration of 150 µg/mL and incubated at room temperature for 30 minutes; 3) fluorescence signals of firefly luciferin were measured with a multifunctional microplate reader (PerkinElmer, Nivo); and the fluorescence values were processed using GraphPad Prism software to calculate EC50 values.

T1 sequence (P43220 24-463, species assumed): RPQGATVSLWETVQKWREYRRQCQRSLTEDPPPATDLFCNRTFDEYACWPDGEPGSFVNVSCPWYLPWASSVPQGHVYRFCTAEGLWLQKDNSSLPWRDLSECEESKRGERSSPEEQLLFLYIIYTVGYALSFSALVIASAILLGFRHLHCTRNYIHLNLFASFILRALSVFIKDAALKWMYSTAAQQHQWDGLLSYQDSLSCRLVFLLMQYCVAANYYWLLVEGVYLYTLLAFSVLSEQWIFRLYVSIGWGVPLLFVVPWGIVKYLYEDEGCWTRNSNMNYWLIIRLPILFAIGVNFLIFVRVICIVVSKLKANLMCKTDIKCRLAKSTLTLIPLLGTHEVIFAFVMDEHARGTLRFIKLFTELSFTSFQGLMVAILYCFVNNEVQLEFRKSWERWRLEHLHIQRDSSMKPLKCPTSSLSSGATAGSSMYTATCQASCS

SMILES: COc1cc(C(=O)O)cc2c1nc(Cc1c(F)cc(-c3nccc(OCc4ccc(C5COC5)cc4F)n3)c3c1CCO3)n2C[C@@H]1CCO1 [Compound 127, (S)-2-((7-(4-((2-fluoro-4-(oxetan-3-yl)benzyl)oxy)pyrimidin-2-yl)-5-fluoro-2,3-dihydrobenzofuran-4-yl)methyl)-4-methoxy-1-(oxetan-2-ylmethyl)-1H-benzo[d]imidazole-6-carboxylic acid]
EC50: 1 to 5 nM

SMILES: CC(c1ccc(-c2cccc(OCc3ccc(C#N)cc3F)n2)c2c1CCO2)c1nc2ccc(C(=O)O)cc2n1C[C@@H]1CCO1 (stereo partly drawn) [Compound 6, 2-(1-(7-(6-((4-cyano-2-fluorobenzyl)oxy)pyridin-2-yl)-2,3-dihydrobenzofuran-4-yl)ethyl)-1-(((S)-oxetan-2-yl)methyl)-1H-benzo[d]imidazole-6-carboxylic acid]
EC50: 5 to 10 nM

SMILES: N#Cc1ccc(COc2cccc(-c3ccc(Cc4nc5ccc(C(=O)O)cc5n4C[C@@H]4CCO4)c4c3OCC4)n2)c(F)c1 [Compound 2, (S)-2-((7-(6-((4-cyano-2-fluorobenzyl)oxy)pyridin-2-yl)-2,3-dihydrobenzofuran-4-yl)methyl)-1-(oxetan-2-ylmethyl)-1H-benzo[d]imidazole-6-carboxylic acid]
EC50: 1 to 5 nM

SMILES: COc1cc(C(=O)O)cc2c1nc(Cc1c(F)cc(-c3ccnc(OCc4ccc(C5COC5)cc4F)n3)c3c1CCO3)n2C[C@@H]1CCO1 [Compound 120, (S)-2-((7-(2-((2-fluoro-4-(oxetan-3-yl)benzyl)oxy)pyrimidin-4-yl)-5-fluoro-2,3-dihydrobenzofuran-4-yl)methyl)-4-methoxy-1-(oxetan-2-ylmethyl)-1H-benzo[d]imidazole-6-carboxylic acid]
EC50: ≤ 1 nM | EC50 of Positive reference / EC50 of Compound of the Present Application: Ratio ≥10

SMILES: N#CCC1(Cn2c(Cc3c(Cl)cc(-c4cccc(OCc5ccc(C#N)cc5F)n4)c4c3CCO4)nc3ccc(C(=O)O)cc32)CC1 [Compound 18, 2-((5-chloro-7-(6-((4-cyano-2-fluorobenzyl)oxy)pyridin-2-yl)-2,3-dihydrobenzofuran-4-yl)methyl)-1-((1-(cyanomethyl)cyclopropyl)methyl)-1H-benzo[d]imidazole-6-carboxylic acid]
EC50: 1 to 5 nM

SMILES: CCOc1cc(C(=O)O)cc2c1nc(Cc1c(F)cc(-c3ccnc(OCc4ccc(Cl)cc4F)n3)c3c1CCO3)n2C[C@@H]1CCO1 [Compound 121, (S)-2-((7-(2-((4-chloro-2-fluorobenzyl)oxy)pyrimidin-4-yl)-5-fluoro-2,3-dihydrobenzofuran-4-yl)methyl)-4-ethoxy-1-(oxetan-2-ylmethyl)-1H-benzo[d]imidazole-6-carboxylic acid]
EC50: ≤ 1 nM | EC50 of Positive reference / EC50 of Compound of the Present Application: Ratio ≥10

SMILES: COc1cc(C(F)(F)F)ccc1COc1cccc(-c2cc(F)c(Cc3nc4c(OCC(F)F)cc(C(=O)O)cc4n3CC3(CF)CC3)c3c2OCC3)n1 [Compound 79]
EC50: ≤ 1 nM

SMILES: O=C(O)c1ccc2nc(Cc3ccc(-c4cccc(OCc5ccc(Cl)cc5F)n4)c4[nH]ccc34)n(C[C@@H]3CCO3)c2c1 [Compound 9, (S)-2-((7-(6-((4-chloro-2-fluorobenzyl)oxy)pyridin-2-yl)-1H-indol-4-yl)methyl)-1-(oxetan-2-ylmethyl)-1H-benzo[d]imidazole-6-carboxylic acid]
EC50: 1 to 5 nM

SMILES: COc1cc(C(=O)O)cc2c1nc(Cc1c(F)cc(-c3nc(OCc4ccc(C5COC5)cc4F)ncc3F)c3c1CCO3)n2C[C@@H]1CCO1 [Compound 128, (S)-2-((7-(5-fluoro-2-((2-fluoro-4-(oxetan-3-yl)benzyl)oxy)pyrimidin-4-yl)-5-fluoro-2,3-dihydrobenzofuran-4-yl)methyl)-4-methoxy-1-(oxetan-2-ylmethyl)-1H-benzo[d]imidazole-6-carboxylic acid]
EC50: ≤ 1 nM | EC50 of Positive reference / EC50 of Compound of the Present Application: Ratio ≥10

SMILES: COc1cc(C(=O)O)cc2c1nc(Cc1c(F)cc(-c3nc(OCc4ccc(Cl)cc4OC(F)F)ncc3F)c3c1CCO3)n2C[C@@H]1CCO1 [Compound 131]
EC50: ≤ 1 nM | EC50 of Positive reference / EC50 of Compound of the Present Application: Ratio ≥10

SMILES: O=C(O)c1ccc2nc(Cc3c(F)cc(-c4cccc(OCc5ccc(Cl)cc5F)n4)c4c3CCO4)n(C[C@@H]3CCO3)c2c1 [Compound 12, (S)-2-((7-(6-((4-chloro-2-fluorobenzyl)oxy)pyridin-2-yl)-5-fluoro-2,3-dihydrobenzofuran-4-yl)methyl)-1-(oxetan-2-ylmethyl)-1H-benzo[d]imidazole-6-carboxylic acid]
EC50: ≤ 1 nM | EC50 of Positive reference / EC50 of Compound of the Present Application: Ratio ≥10

Now from value to compound:

EC50: ≤ 1 nM | EC50 of Positive reference / EC50 of Compound of the Present Application: Ratio ≥10
SMILES: COc1cc(C(F)(F)F)ccc1COc1ncc(F)c(-c2cc(F)c(Cc3nc4c(OC)cc(C(=O)O)cc4n3C[C@@H]3CCO3)c3c2OCC3)n1 [Compound 130, (S)-2-((7-(5-fluoro-2-((2-methoxy-4-(trifluoromethyl)benzyl)oxy)pyrimidin-4-yl)-5-fluoro-2,3-dihydrobenzofuran-4-yl)methyl)-4-methoxy-1-(oxetan-2-ylmethyl)-1H-benzo[d]imidazole-6-carboxylic acid]

EC50: 1 to 5 nM
SMILES: COc1cc(C(=O)O)cc2c1nc(Cc1c(F)cc(-c3cccc(OCc4ccc(Cl)cc4F)c3)c3c1CCO3)n2C[C@@H]1CCO1 [Compound 107, (S)-2-((7-(3-((4-chloro-2-fluorobenzyl)oxy)phenyl)-5-fluoro-2,3-dihydrobenzofuran-4-yl)methyl)-4-methoxy-1-(oxetan-2-ylmethyl)-1H-benzo[d]imidazole-6-carboxylic acid]

EC50: ≤ 1 nM | EC50 of Positive reference / EC50 of Compound of the Present Application: Ratio ≥10
SMILES: COc1cc(C(=O)O)cc2c1nc(Cc1c(F)cc(-c3ccnc(OCc4ccc(Cl)cc4F)n3)c3c1CCO3)n2C[C@@H]1CCO1 [Compound 106, (S)-2-((7-(2-((4-chloro-2-fluorobenzyl)oxy)pyrimidin-4-yl)-5-fluoro-2,3-dihydrobenzofuran-4-yl)methyl)-4-methoxy-1-(oxetan-2-ylmethyl)-1H-benzo[d]imidazole-6-carboxylic acid]

EC50: ≤ 1 nM | EC50 of Positive reference / EC50 of Compound of the Present Application: Ratio ≥10
SMILES: COc1cc(C(F)(F)F)ccc1COc1nc(-c2cc(F)c(Cc3nc4c(OC)cc(C(=O)O)cc4n3C[C@@H]3CCO3)c3c2OCC3)ccc1F [Compound 116, (S)-2-((7-(5-fluoro-6-((2-methoxy-4-(trifluoromethyl)benzyl)oxy)pyridin-2-yl)-5-fluoro-2,3-dihydrobenzofuran-4-yl)methyl)-4-methoxy-1-(oxetan-2-ylmethyl)-1H-benzo[d]imidazole-6-carboxylic acid]

EC50: ≤ 1 nM | EC50 of Positive reference / EC50 of Compound of the Present Application: Ratio ≥10
SMILES: COc1cc(C(F)(F)F)ccc1COc1ccnc(-c2cc(F)c(Cc3nc4c(OC)cc(C(=O)O)cc4n3C[C@@H]3CCO3)c3c2OCC3)n1 [Compound 125, (S)-2-((7-(4-((2-methoxy-4-(trifluoromethyl)benzyl)oxy)pyrimidin-2-yl)-5-fluoro-2,3-dihydrobenzofuran-4-yl)methyl)-4-methoxy-1-(oxetan-2-ylmethyl)-1H-benzo[d]imidazole-6-carboxylic acid]

EC50: ≤ 1 nM | EC50 of Positive reference / EC50 of Compound of the Present Application: Ratio ≥10
SMILES: COc1cc(C(=O)O)cc2c1nc(Cc1c(F)cc(-c3nccc(OCc4ccc(Cl)cc4F)n3)c3c1CCO3)n2C[C@@H]1CCO1 [Compound 117, (S)-2-((7-(4-((4-chloro-2-fluorobenzyl)oxy)pyrimidin-2-yl)-5-fluoro-2,3-dihydrobenzofuran-4-yl)methyl)-4-methoxy-1-(oxetan-2-ylmethyl)-1H-benzo[d]imidazole-6-carboxylic acid]

EC50: ≤ 1 nM | EC50 of Positive reference / EC50 of Compound of the Present Application: Ratio ≥10
SMILES: COc1cc(C(F)(F)F)ccc1COc1cccc(-c2cc(F)c(Cc3nc4c(OC)cc(C(=O)O)cc4n3C[C@@H]3CCO3)c3c2OCC3)n1 [Compound 80, (S)-2-((5-fluoro-7-(6-((2-methoxy-4-(trifluoromethyl)benzyl)oxy)pyridin-2-yl)-2,3-dihydrobenzofuran-4-yl)methyl)-4-methoxy-1-(oxetan-2-ylmethyl)-1H-benzo[d]imidazole-6-carboxylic acid]

EC50: ≤ 1 nM | EC50 of Positive reference / EC50 of Compound of the Present Application: Ratio ≥10
SMILES: COc1cc(C(=O)O)cc2c1nc(Cc1c(F)cc(-c3ccnc(OCc4ccc(C)cc4F)n3)c3c1CCO3)n2C[C@@H]1CCO1 [Compound 133, (S)-2-((7-(2-((2-fluoro-4-methylbenzyl)oxy)pyrimidin-4-yl)-5-fluoro-2,3-dihydrobenzofuran-4-yl)methyl)-4-methoxy-1-(oxetan-2-ylmethyl)-1H-benzo[d]imidazole-6-carboxylic acid]

EC50: 1 to 5 nM
SMILES: COc1cc(C(=O)O)cc2c1nc(Cc1c(F)cc(-c3ccc(Br)c(OCc4ccc(Cl)cc4F)n3)c3c1CCO3)n2C[C@@H]1CCO1 [Compound 109, (S)-2-((7-(5-bromo-6-((4-chloro-2-fluorobenzyl)oxy)pyridin-2-yl)-5-fluoro-2,3-dihydrobenzofuran-4-yl)methyl)-4-methoxy-1-(oxetan-2-ylmethyl)-1H-benzo[d]imidazole-6-carboxylic acid]

EC50: ≤ 1 nM | EC50 of Positive reference / EC50 of Compound of the Present Application: Ratio ≥10
SMILES: COc1cc(C(=O)O)cc2c1nc(Cc1c(F)cc(-c3ccc(F)c(OCc4ccc(C#N)cc4F)n3)c3c1CCO3)n2C[C@@H]1CCO1 [Compound 115]
